According to patent US9346761B2, “Arginine methyltransferase inhibitors and uses thereof” (Epizyme, Inc., priority 2013, dated 2016):

Assays:
[1] = molecular target: T1, Full-length human PRMT6 (Homo sapiens, UniProt Q96LA8); test: PRMT6 biochemical assay (3H-SAM Flashplate, peptide substrate)
T1 construct: Flag-PRMT6-His was eluted with 200 ug/ml FLAG peptide in the same buffer; made in house; host or cells: HEK 293F cells (BacMam virus, pFastBacMam)
In short: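 Read-out is 3H-methylated histone H4 (36-50) peptide bound to streptavidin Flashplates after a cold-SAM stop. Baculovirus-expressed Flag-PRMT6-His met compound for 30 min at room temperature before SAM and peptide; Bicine pH 7.6 buffer. IC50 fitted to % inhibition normalized to SAH (min) and DMSO (max).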

[2] = molecular target: T2, Human CARM1 (PRMT4) (Homo sapiens, UniProt Q86X55); test: CARM1 biochemical assay (3H-SAM Flashplate, peptide substrate)
T2 construct: Flag-CARM1-His was eluted with 200 ug/ml FLAG peptide in buffer A; made in house; host or cells: HEK 293F cells (BacMam virus, pFastBacMam)
T2 sequence (Q86X55 with tags, fused parts or gaps isoform Q86X55-1): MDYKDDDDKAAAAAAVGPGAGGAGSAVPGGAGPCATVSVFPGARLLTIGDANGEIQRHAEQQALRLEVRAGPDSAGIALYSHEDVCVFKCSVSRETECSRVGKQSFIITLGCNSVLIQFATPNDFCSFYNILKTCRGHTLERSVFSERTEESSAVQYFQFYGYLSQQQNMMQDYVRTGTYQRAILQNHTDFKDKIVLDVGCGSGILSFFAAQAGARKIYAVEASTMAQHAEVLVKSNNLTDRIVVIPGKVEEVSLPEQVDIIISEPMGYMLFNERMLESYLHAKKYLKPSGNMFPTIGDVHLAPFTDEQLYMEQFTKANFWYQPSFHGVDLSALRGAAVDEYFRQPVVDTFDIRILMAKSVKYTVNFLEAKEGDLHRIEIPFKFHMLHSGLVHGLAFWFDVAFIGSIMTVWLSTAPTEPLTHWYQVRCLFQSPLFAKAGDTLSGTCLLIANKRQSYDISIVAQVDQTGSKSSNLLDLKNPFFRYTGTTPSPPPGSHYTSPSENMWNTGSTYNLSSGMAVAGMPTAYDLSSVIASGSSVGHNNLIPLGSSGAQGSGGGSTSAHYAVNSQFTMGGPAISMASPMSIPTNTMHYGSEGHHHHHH
Text: General Materials. S-adenosylmethionine (SAM), S-adenosylhomocysteine (SAH), bicine, Tween20, dimethylsulfoxide (DMSO), bovine skin gelatin (BSG), sodium butyrate and Tris(2-carboxyethyl)phosphine hydrochloride solution (TCEP) were purchased from Sigma-Aldrich at the highest level of purity possible. ^3H-SAM was purchase from American Radiolabeled Chemicals with a specific activity of 80 Ci/mmol. 384-well streptavidin Flashplates were purchased from PerkinElmer.
Substrates. Peptide representative of human histone H3 residues 16-30 was synthesized with an N-terminal linker-affinity tag motif and a C-terminal amide cap by 21st Century Biochemicals.
Protein Expression. Recombinant baculovirus were generated according to Bac-to-Bac kit instructions (Life Technologies). […] Infections were carried out at 37° C. for 48 hours, harvested by centrifugation, and stored at −80° C. for purification.
Protein Purification. […] Column was washed with 500 mM NaCl in buffer A and Flag-CARM1-His was eluted with 200 ug/ml FLAG peptide in buffer A. Pooled fractions were dialyzed in 20 mM Tris, 150 mM NaCl, 5% glycerol and 1 mM DTT, pH 7.8.
General Procedure for CARM1 Enzyme Assays on Peptide Substrates. The assays were all performed in a buffer consisting of 20 mM Bicine (pH=7.6), 1 mM TCEP, 0.005% BSG, and 0.002% Tween 20, prepared on the day of use. […] DMSO (1 ul) was added to Columns 11, 12, 23, 24, rows A-H for the maximum signal control and 1 ul of SAH, a known product and inhibitor of CARM1, was added to columns 11, 12, 23, 24, rows I-P for the minimum signal control. A cocktail (40 ul) containing the CARM1 enzyme was added by Multidrop Combi (Thermo-Fisher). The compounds were allowed to incubate with CARM1 for 30 min at room temperature, then a cocktail (10 ul) containing ^3H-SAM and peptide was added to initiate the reaction (final volume=51 ul). […] The assays were stopped by the addition of non-radiolabeled SAM (10 ul) to a final concentration of 300 uM, which dilutes the ^3H-SAM to a level where its incorporation into the peptide substrate is no longer detectable. 50 ul of the reaction in the 384-well polypropylene plate was then transferred to a 384-well Flashplate and the biotinylated peptides were allowed to bind to the streptavidin surface for at least 1 hour before being washed once with 0.1% Tween20 in a Biotek ELx405 plate washer. The plates were then read in a PerkinElmer TopCount plate reader to measure the quantity of ^3H-labeled peptide bound to the Flashplate surface, measured as disintegrations per minute (dpm) or alternatively, referred to as counts per minute (cpm).
Where dpm=disintegrations per minute, cmpd=signal in assay well, and min and max are the respective minimum and maximum signal controls.
Where top and bottom are the normally allowed to float, but may be fixed at 100 or 0 respectively in a 3-parameter fit. The Hill Coefficient normally allowed to float but may also be fixed at 1 in a 3-parameter fit. Y is the % inhibition and X is the compound concentration.

T1 sequence (Q96LA8 with tags, fused parts or gaps): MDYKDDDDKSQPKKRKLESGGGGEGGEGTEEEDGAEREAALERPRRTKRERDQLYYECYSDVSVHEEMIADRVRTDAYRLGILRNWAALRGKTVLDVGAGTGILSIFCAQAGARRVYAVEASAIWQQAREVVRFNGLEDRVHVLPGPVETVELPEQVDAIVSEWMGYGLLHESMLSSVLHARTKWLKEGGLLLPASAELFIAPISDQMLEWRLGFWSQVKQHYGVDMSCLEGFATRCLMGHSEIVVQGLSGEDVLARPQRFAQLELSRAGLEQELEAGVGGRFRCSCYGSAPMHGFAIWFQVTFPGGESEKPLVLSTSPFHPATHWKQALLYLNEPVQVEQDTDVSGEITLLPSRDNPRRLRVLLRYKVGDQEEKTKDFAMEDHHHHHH

Row | SMILES | IC50 [1] [nM] | IC50 [2] [nM]
1 | CN(CCN)Cc1n[nH]cc1-c1ccc(OC(F)F)cc1 [Compound 138] | < 100 | 1010 to 3000
2 | CN(CCN)Cc1c[nH]nc1-c1ccccc1C#N [Compound 140] | 1010 to 3000 | > 10000
3 | CN(CCN)Cc1c[nH]nc1-c1ccc(C(F)(F)F)c(F)c1 [Compound 141] | < 100 | 1010 to 3000
4 | COc1cc(-c2n[nH]cc2CN(C)CCN)ccc1F [Compound 142] | < 100 | 1010 to 3000
5 | CCN(CC)C(=O)c1ccc(-c2n[nH]cc2CN(C)CCN)cc1 [Compound 143] | 101 to 1000 | 3010 to 10000
6 | CC(C)Oc1ccc(-c2c[nH]nc2CN(C)CCN)cc1F [Compound 144] | < 100 | 3010 to 10000
7 | CN(CCN)Cc1n[nH]cc1-c1ccc(C2CCOCC2)cc1 [Compound 145] | < 100 | 3010 to 10000
8 | COc1ccc(-c2n[nH]cc2CN(C)CCN)c(Cl)c1 [Compound 146] | < 100 | 3010 to 10000
9 | CN(CCN)Cc1c[nH]nc1-c1cc(C#N)ccc1Cl [Compound 147] | < 100 | > 10000
10 | CN(CCN)Cc1c[nH]nc1-c1ccc(C(F)(F)F)cc1F [Compound 148] | < 100 | > 10000
11 | CN(CCN)Cc1c[nH]nc1-c1cccc(N(C)C)c1 [Compound 149] | < 100 | 1010 to 3000
12 | CCOC(=O)c1cccc(-c2n[nH]cc2CN(C)CCN)c1 [Compound 150] | < 100 | 1010 to 3000
13 | COc1cc(F)ccc1-c1n[nH]cc1CN(C)CCN [Compound 151] | 101 to 1000 | 3010 to 10000
14 | Cc1cc(F)ccc1-c1n[nH]cc1CN(C)CCN [Compound 152] | < 100 | 3010 to 10000
15 | COc1ccc(-c2n[nH]cc2CN(C)CCN)cc1 [Compound 153] | < 100 | 1010 to 3000
16 | COc1ccc(-c2n[nH]cc2CN(C)CCN)c(C(F)(F)F)c1 [Compound 154] | 101 to 1000 | > 10000
17 | COc1ccc(-c2n[nH]cc2CN(C)CCN)c(C)c1 [Compound 155] | < 100 | > 10000
18 | CN(CCN)Cc1c[nH]nc1-c1cc(Cl)ccc1F [Compound 156] | < 100 | 3010 to 10000
19 | COc1ccc(Cl)cc1-c1n[nH]cc1CN(C)CCN [Compound 157] | 101 to 1000 | > 10000
20 | Cc1ccc(C#N)cc1-c1n[nH]cc1CN(C)CCN [Compound 158] | 101 to 1000 | > 10000
21 | Cc1ccc(F)cc1-c1n[nH]cc1CN(C)CCN [Compound 159] | < 100 | > 10000
22 | COc1ccc(F)cc1-c1n[nH]cc1CN(C)CCN [Compound 160] | 101 to 1000 | > 10000
23 | Cc1ccccc1-c1n[nH]cc1CN(C)CCN [Compound 161] | < 100 | 3010 to 10000
24 | Cc1ccc(-c2n[nH]cc2CN(C)CCN)cc1 [Compound 162] | < 100 | 101 to 1000
